From publication PMC11755529, “Chlorpyrifos Acts as a Positive Modulator and an Agonist of N-Methyl-D-Aspartate (NMDA) Receptors: A Novel Mechanism of Chlorpyrifos-Induced Neurotoxicity” (Journal of Xenobiotics, 2025)
Read-outs that look alike come from different tables or passages of the source.

Assays:
[1] = target: T1, GluN1-1a/GluN2A NMDAR (Rattus norvegicus, UniProt P35439+Q00959); experiment: TEVC electrophysiology of Xenopus oocytes expressing GluN1-1a/GluN2A; type: cell-based
T1 construct: expressed in transfected cells; host or cells: Xenopus laevis oocytes, injected with cRNA or plasmid DNA (pRK7 or pBluescript SK(-))
Procedure: (§1) Ovaries of mature female Xenopus laevis were supplied by the European Xenopus Resource Centre (University of Portsmouth, Portsmouth, UK). Upon receipt, oocytes were first separated with 1 mg/mL collagenase (Type 1A from Clostridium histolyticum; Sigma, Poole, UK) in Ca^2+-free Barth’s gentamicin–theophylline–pyruvate (GTP) solution (96 mM NaCl, 2 mM KCl, 1 mM MgCl2, 5 mM HEPES, 2.5 mM pyruvic acid, 0.5 mM theophylline, 50 μg/mL gentamicin, pH 7.5) on a shaker for approximately 45 min at room temperature. Oocytes were then rinsed with Ca^2+-free GTP solution six to eight times until a clear solution was obtained and incubated in normal Barth’s GTP solution (Ca^2+-free GTP with inclusion of 1.8 mM CaCl2) at ~4 °C for at least half an hour prior to microinjection.
(§2) Healthy oocytes at developmental stages IV and V were injected with 50 nL of cRNA (into the cytoplasm) or plasmid DNA (into the nucleus) at a concentration of ~100 ng/μL using a Nanolitre 2010 Injector (World Precision Instruments, Hitchin, UK). cRNA or DNA plasmids encoding the rat NMDAR subunits GluN1-1a and GluN2A or GluN1-1a and GluN2B were mixed at ratios of 1:1 (by weight) for injection. The cRNA was synthesized from linearized plasmid DNA (pRK7 or pBluscript SK(−)) containing the GluN-encoding genes using an Invitrogen mMessage mMachine kit (Thermo Fisher Scientific, Loughborough, UK). Injected oocytes were kept in normal Barth’s GTP solution at 19 °C for two to three days for expression of NMDAR subunits before recordings.
(§3) TEVC electrophysiology was used to assess the direct effects of CPF on NMDARs containing GluN1-1a and GluN2A or GluN1-1a and GluN2B subunits expressed in Xenopus oocytes. Pulled borosilicate glass capillaries (GC150TF-10, Harvard Apparatus, Cambridge, UK) (resistances 0.5–2 MΩ) were filled with 3 M KCl and used to impale injected oocytes for recording. Injected oocytes were continuously perfused with Mg^2+-free Xenopus Ringer solution (95 mM NaCl, 2 mM KCl, 2 mM CaCl2, 5 mM HEPES, pH 7.5) at a flow rate of 5 mL/min, with test compounds applied using a Valvelink 8 gravity-fed perfusion system (Automate Scientific, Berkeley, CA, USA). Recordings were performed at 20–25 °C and oocytes were clamped at −75 mV holding potential in all experiments. Output current responses were transferred to a PC via an analogue-to-digital (A/D) converter (National Instruments PCI-6014, Austin, TX, USA) and recorded in WinEDR V3.2.7 software (John Dempster, Strathclyde Electrophysiology Software, Strathclyde Institute of Pharmacy and Biomedical Sciences, University of Strathclyde, Strathclyde, UK). Current changes in response to NMDA/glycine when applied with CPF were normalized to the control current without CPF.
(§4) Results were expressed as means ± standard error of the mean (SEM). Statistical analysis was undertaken between concentrations using an independent samples Kruskal–Wallis test across cell culture conditions using IBM SPSS statistical software (version 26.0). […] EC50 and maximum response values were obtained using non-linear regression by fitting a four-parametric logistic equation to concentration–response plots in GraphPad Prism 10 (GraphPad Software Inc., La Jolla, CA, USA):(1) Y=Min+Max−Min/10^LogEC50−XS+1 where Y is the response to the agonist, X is the log10 concentration of the agonist, EC50 is the concentration of agonist that produces a half-maximum activation response, and S is the Hill slope. EC50s and maximum responses were compared for significant differences using an extra sum of squares F-test in GraphPad Prism 10.

[2] = test system: 4-week differentiated ReNcell CX cells; experiment: Three-color fluorescence (FDA/PI) live, dead and apoptotic cell staining; type: cell-based, human; conditions: 24 h
Procedure: (§5) The human neural progenitor ReNcell CX cell line (Merck Millipore, Watford, UK) is a neural stem cell line derived from the developing human fetal brain cortex ([…]) at 14 weeks of gestational age. The ReNcell CX cell line was expanded on laminin-coated flasks (20 μg/mL; Sigma-Aldrich, Poole, UK) in ReNcell Neural Stem Cell (NSC) Maintenance Medium (Merck Millipore, Watford, UK) containing fresh EGF (20 ng/mL; Merck Millipore, Watford, UK) and FGF-b (20 ng/mL; Merck Millipore, Watford, UK). Cultures were incubated at 37 °C in a 95% humidified atmosphere of 5% CO2. ReNcell CX neural progenitor cells were differentiated into a co-culture of neurons, astrocytes, and oligodendrocytes by replacing the complete ReNcell CX medium with EGF- and FGF-b-free medium; with the differentiation medium refreshed every 2 days throughout the 4-week differentiation period.
(§6) A three-color fluorescence assay was performed as described by Kim et al.. Non-fluorescent fluorescein diacetate (FDA) permeates into active and intact cells and is hydrolyzed by intracellular esterases into a highly fluorescent green fluorescein when illuminated with a fluorescein isothiocyanate (FITC; blue) excitation filter set (emission wavelength […]). Propidium iodide (PI) is a nucleic acid dye that cannot permeate intact cell membranes and selectively stains the nuclei of dead cells or cells in late apoptotic stages. Stained nuclei omit red fluorescence under rhodamine (green) excitation (emission wavelength 650 nm). Live–dead cell assays followed the protocol described by Jones and Senft. The cells were observed using a Nikon TS100 inverted microscope (Nikon Europe B.V., Amstelveen, The Netherlands) with incident fluorescence optics. Images were captured at 200× magnification and digitalized with a Moticam 2300 camera (Roper Scientific Inc., Duluth, GA, USA; resolution 3 MP).
(§7) Live/dead cell staining was analyzed quantitatively. The number of PI-stained nuclei was counted manually using the cell counting option in the ImageJ software (V2 Fiji-win64, University of Nottingham).

[3] = target: T2, GluN1-1a/GluN2B NMDAR (Rattus norvegicus, UniProt P35439+Q00960); experiment: TEVC electrophysiology of Xenopus oocytes expressing GluN1-1a/GluN2B; type: cell-based
T2 construct: expressed in transfected cells; host or cells: Xenopus laevis oocytes, injected with cRNA or plasmid DNA (pRK7 or pBluescript SK(-))
Procedure: as §1, §2, §3, §4

[4] = Three-color fluorescence (FDA/PI) live, dead and apoptotic cell staining; type: cell-based, human; conditions: human, 14 μM CPF, control 96.4%, p < 0.001, read-out: cell viability (live cells)
Procedure: as §5, §6, §7

[5] = cited from earlier work
[6] = 10 μM CPF applied directly, −75 mV

T1 sequence (Q00959 20-1464 limits assumed, other chains not shown): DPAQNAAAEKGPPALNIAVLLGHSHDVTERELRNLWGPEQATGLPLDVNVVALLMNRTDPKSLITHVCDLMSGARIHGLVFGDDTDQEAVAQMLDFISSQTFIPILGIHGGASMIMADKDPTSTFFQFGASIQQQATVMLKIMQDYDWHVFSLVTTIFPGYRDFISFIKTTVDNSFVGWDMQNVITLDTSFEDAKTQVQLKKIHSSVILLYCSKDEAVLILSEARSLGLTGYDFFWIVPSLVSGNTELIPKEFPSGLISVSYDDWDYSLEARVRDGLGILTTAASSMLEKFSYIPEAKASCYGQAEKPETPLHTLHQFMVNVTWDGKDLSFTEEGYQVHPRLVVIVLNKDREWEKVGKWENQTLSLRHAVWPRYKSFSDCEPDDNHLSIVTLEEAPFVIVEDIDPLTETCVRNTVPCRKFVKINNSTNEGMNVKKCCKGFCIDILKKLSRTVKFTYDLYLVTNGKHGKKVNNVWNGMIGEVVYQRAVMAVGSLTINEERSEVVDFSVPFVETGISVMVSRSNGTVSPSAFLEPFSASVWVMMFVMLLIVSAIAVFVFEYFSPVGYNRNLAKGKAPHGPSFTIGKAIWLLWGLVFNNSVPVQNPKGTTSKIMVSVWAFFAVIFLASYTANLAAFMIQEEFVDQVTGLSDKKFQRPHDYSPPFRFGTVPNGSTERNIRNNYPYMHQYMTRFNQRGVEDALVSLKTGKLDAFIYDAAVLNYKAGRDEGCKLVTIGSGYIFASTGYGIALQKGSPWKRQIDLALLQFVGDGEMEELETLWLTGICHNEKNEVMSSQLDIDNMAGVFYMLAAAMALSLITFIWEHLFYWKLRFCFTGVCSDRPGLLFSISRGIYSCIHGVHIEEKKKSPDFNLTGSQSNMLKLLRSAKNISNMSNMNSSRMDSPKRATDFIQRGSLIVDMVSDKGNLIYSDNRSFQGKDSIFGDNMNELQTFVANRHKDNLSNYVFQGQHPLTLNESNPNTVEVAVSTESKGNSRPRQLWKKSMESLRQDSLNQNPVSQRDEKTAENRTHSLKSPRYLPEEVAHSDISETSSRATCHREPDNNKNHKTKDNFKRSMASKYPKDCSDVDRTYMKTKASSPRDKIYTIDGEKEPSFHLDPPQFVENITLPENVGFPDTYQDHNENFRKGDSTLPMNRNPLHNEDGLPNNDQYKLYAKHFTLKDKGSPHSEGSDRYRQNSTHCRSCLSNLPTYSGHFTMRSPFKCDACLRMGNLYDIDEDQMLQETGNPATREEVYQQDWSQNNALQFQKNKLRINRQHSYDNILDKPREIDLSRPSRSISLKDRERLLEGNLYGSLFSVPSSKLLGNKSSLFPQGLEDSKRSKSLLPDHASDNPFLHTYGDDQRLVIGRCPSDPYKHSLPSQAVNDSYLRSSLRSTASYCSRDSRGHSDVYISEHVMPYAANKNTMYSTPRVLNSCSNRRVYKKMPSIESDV
T2 sequence (Q00960 27-1482, other chains not shown): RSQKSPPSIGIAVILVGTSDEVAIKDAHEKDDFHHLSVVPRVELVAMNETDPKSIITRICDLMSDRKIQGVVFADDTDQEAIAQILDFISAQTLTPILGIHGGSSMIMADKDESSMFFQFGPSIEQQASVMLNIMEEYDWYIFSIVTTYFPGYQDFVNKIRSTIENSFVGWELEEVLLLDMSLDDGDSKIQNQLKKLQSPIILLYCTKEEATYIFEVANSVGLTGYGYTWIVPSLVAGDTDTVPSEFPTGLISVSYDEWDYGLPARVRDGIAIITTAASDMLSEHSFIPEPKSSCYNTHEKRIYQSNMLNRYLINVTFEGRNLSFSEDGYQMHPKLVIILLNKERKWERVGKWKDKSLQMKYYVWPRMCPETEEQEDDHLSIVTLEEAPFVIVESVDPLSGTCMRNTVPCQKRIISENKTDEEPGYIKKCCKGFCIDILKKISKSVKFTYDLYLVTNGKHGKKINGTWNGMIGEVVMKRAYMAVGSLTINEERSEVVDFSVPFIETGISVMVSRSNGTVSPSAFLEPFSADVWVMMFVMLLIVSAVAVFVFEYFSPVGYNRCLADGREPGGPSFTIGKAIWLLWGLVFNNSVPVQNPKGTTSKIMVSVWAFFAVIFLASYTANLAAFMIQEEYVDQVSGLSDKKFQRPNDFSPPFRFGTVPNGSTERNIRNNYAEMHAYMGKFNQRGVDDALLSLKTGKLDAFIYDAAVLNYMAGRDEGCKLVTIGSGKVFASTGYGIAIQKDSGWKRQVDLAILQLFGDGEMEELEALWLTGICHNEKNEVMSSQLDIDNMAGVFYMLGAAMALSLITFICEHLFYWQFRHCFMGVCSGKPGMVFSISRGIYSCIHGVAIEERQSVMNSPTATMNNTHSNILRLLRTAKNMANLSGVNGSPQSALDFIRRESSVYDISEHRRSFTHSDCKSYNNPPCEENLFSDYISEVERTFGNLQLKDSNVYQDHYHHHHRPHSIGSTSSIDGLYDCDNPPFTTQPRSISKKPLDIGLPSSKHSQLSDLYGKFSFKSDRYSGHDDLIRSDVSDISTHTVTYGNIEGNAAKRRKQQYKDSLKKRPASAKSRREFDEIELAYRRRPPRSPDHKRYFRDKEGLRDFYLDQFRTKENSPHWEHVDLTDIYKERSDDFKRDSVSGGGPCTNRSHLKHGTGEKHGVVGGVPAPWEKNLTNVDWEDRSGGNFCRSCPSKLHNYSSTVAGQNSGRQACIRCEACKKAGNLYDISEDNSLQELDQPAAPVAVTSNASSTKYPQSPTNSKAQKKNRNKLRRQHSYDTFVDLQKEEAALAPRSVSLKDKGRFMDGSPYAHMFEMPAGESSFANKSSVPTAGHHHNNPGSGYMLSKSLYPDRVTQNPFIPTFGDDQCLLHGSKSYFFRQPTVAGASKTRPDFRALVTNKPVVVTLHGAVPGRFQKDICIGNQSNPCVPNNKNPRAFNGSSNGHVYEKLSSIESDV

Compound: C[C@]12N[C@H](Cc3ccccc31)c1ccccc12 [MK-801, reference compound]
- antagonism of CPF-induced potentiation of NMDA/glycine-evoked current ([1]; 10 μM MK-801 with 1 μM CPF, 10 μM NMDA, 10 μM Gly, −75 mV): completely blocked

Compound: CC(C(O)c1ccc(O)cc1)N1CCC(Cc2ccccc2)CC1 (stereo not drawn) [IFN, ifenprodil, reference compound]
- effect on CPF-induced decrease in cell viability ([2]; 25 μM IFN co-administered with 14 μM CPF, p < 0.001): attenuated the CPF-induced decrease in ReNcell CX cell viability
- antagonism of CPF-induced potentiation of NMDA/glycine-evoked current ([3]; 100 μM IFN with 1 μM CPF, 10 μM NMDA, 10 μM Gly, −75 mV): completely blocked

Compound: CN[C@H](CC(=O)O)C(=O)O [NMDA, N-methyl-D-aspartate]
- maximum response (percentage of the response to 1 mM NMDA) ([1]; 10 μM glycine, absence of CPF): 102%
- EC50 ([1]; 10 μM glycine, absence of CPF, n = 5, read-out: NMDA EC50): 57.9 µM
- maximum response (percentage of the response to 1 mM NMDA) ([3]; 10 μM glycine, absence of CPF): 103%
- EC50 ([3]; 10 μM glycine, absence of CPF, n = 6, read-out: NMDA EC50): 70 µM

Compound: CCOP(=S)(OCC)Oc1nc(Cl)c(Cl)cc1Cl [CPF, O,O-diethyl O-(3,5,6-trichloropyridin-2-yl) phosphorothioate]
- viability at 24 h, 14 μM [4]: 71.4%
- cells transitioned to apoptosis ([2]; 14 μM CPF): 18.7%
- dead cells ([2]; 14 μM CPF): 3.91%
- EC50 [1]: ~0.04 µM
- enhancement of current evoked by 10 μM glycine ([1]; 1 μM CPF co-applied with 10 μM glycine, n = 3, p < 0.05): ~ 1.7 fold
- direct activation by CPF alone [1, 6]: resulted in NMDAR-mediated currents
- EC50 [3]: ~0.055 µM
- direct activation by CPF alone [3, 6]: resulted in NMDAR-mediated currents
- enhancement of current evoked by 100 μM NMDA ([3]; 10 μM CPF co-applied with 100 μM NMDA, n = 5, p < 0.05): ~ 8.2 fold
- no observed adverse effect level (NOAEL), as concentration ([5]; conversion of 100 μg/kg/day as printed): ≈ 285 nM
- no observed adverse effect level (NOAEL) ([5]; set by European Food Safety Authority): 100 µg/kg/day
